Measurements published in ChEMBL document CHEMBL4359927, “Structural optimization and neurotrophic activity evaluation of neurotrophic gentiside derivatives” (Bioorg Med Chem Lett, 2019).
Activity calls are given as the source filed them. The calls are words filed in the database; no cut-off is given here.

Assays:
[1] = test system: PC-12; assay: Induction of neurite outgrowth in rat PC12 cells assessed as increase in neurite length at 1 uM incubated for 48 hrs by phase contrast microscopy; format: functional, cell-based
[2] = test system: PC-12; assay: Induction of neurite outgrowth in rat PC12 cells assessed as increase in neurite length at 30 uM incubated for 48 hrs by phase contrast microscopy; format: functional, cell-based
[3] = test system: PC-12; assay: Induction of neurite outgrowth in rat PC12 cells assessed as increase in neurite length incubated for 48 hrs by phase contrast microscopy; format: functional, cell-based
[4] = test system: PC-12; assay: Cytotoxicity against rat PC12 cells assessed as reduction in cell viability at >5 uM incubated for 48 hrs; format: cell-based; conditions: pc-12, 48 h
[5] = test system: PC-12; assay: Cytotoxicity against rat PC12 cells assessed as reduction in cell viability at 10 uM incubated for 48 hrs; format: cell-based; conditions: pc-12, 48 h
[6] = test system: PC-12; assay: Induction of neurite outgrowth in rat PC12 cells assessed as increase in neurite length at 10 uM incubated for 48 hrs by phase contrast microscopy; format: functional, cell-based

Compound | Activity [1] | Activity [2] | also measured
CCCCCCCC/C=C/c1ccc(COC(=O)c2cccc(O)c2O)cc1 | Active |  | 
O=C(Oc1ccccc1)c1cccc(O)c1O |  | Active | 
CCCCCCCCCCCCCCOC(=O)c1cccc2nc[nH]c12 | inactive |  | 
CCCCCCCCCc1ccc(COC(=O)c2cccc(O)c2O)cc1 | Active |  | Activity [3]: Dose-dependent effect; Activity [4]: Toxic; Activity [5]: Toxic
O=C(OCc1ccccc1)c1cccc(O)c1O |  | Active | 
CCCCCCC/C=C/c1ccc(COC(=O)c2cccc(O)c2O)cc1 | Active |  | 
O=C(OCCCCc1ccccc1)c1cccc(O)c1O |  | inactive | 
CCCCCCCCCCc1ccc(COC(=O)c2cccc(O)c2O)cc1 | Active |  | 
CCCCCc1ccc(-c2ccc(COC(=O)c3cccc(O)c3O)cc2)cc1 |  |  | Activity [6]: inactive
CCCCCCCCCCCCCCOC(=O)c1ccn[nH]1 | inactive |  | 
CCCCCCc1ccc(-c2ccc(OC(=O)c3cccc(O)c3O)cc2)cc1 |  |  | Activity [6]: inactive
CCCCCCCCCCc1ccc(OC(=O)c2cccc(O)c2O)cc1 | Active |  | Activity [3]: Dose-dependent effect; Activity [4]: Toxic; Activity [5]: Toxic
O=C(OCCCCCCCCCCc1ccccc1)c1cccc(O)c1O |  | inactive | 
O=C(Oc1ccc(-c2ccccc2)cc1)c1cccc(O)c1O |  |  | Activity [6]: inactive
CCCCCCCCCCCCCCOC(=O)c1csc(N)n1 | inactive |  | 
O=C(OCCCc1ccccc1)c1cccc(O)c1O |  | inactive | 
CCCCCCCCCCCCCCOC(=O)c1c(O)c(=O)[nH]c2ccccc12 | Active |  | Activity [3]: Dose-dependent effect; Activity [4]: Toxic; Activity [5]: Toxic
O=C(OCc1ccc(-c2ccccc2)cc1)c1cccc(O)c1O |  |  | Activity [6]: inactive
O=C(OCCc1ccccc1)c1cccc(O)c1O |  | inactive | 
CCCCCCCCCCCCCCOC(=O)c1cccc(O)c1O | Active |  | Activity [4]: Toxic; Activity [5]: Toxic
